How the values were obtained:
[1] = test system: isolated ventricular myocytes; assay: After-contractions protocol in isolated ventricular myocytes; format: cell-based, mice; details: 5 s stimulation, counted 40 s after stimulation withdrawn
Method: FIG. 10 provides graphs showing that aftercontractions increase in heterozygous Rap1A myocytes. Further investigation of the spontaneous waves was performed using an “after-contractions” protocol by stimulating for 5 seconds and counting the number of after-contractions that occur 40 seconds after the stimulation is withdrawn. (A) Rap1A-heterozygous myocytes have increased after-contractions compared to control wild-type (WT) myocytes. (B) Inhibition of protein kinase C (PKC) by bisindolylmaleimide I (BIM, 1 μM) increases after-contractions in control wild-type (WT) and Rap1A-heterozygous myocytes. (C) Protein kinase C (PKC) activation by phorbol myristate acetate (PMA, 150 nM) leads to a decrease in after-contractions in Rap1A-heterozygous myocytes. (D) Summary data of WT/Rap1A-heterozygous+/− BIM (Inhibitor) and PMA (Activator). Both drugs were incubated in isolated ventricular myocytes before measurements were taken to activate or inhibit PKC.

[2] = test system: isolated Rap1A-heterozygous cardiac myocytes; details: combination with isoproterenol, waves resumed after washout
Method: Ventricular myocytes were isolated from male C57BL/6 control wild-type (WT) and Rap1A-heterozygous (Rap1a^+/−) mice. Whole hearts were cannulated and hung on a Langendorff apparatus and tissue treated for enzymatic digestion for 3-5 minutes. The ventricles were minced and myocytes were dissociated by trituration. Subsequently, the myocytes were filtered, centrifuged, and used for the studies within 6 hours of isolation. Calcium transients were measured by loading isolated myocytes with fluo 4-AM (10 μM) for 30 min, followed by an additional 30 min for intracellular deesterification. Cell fluorescence was measured by epifluorescence. The intracellular calcium concentration [Ca^2+]i of single cells was measured with excitation at 480±20 nm and emission at 535±25 nm. Data were expressed as ΔF/F0, where F is the fluorescence intensity, and F0 is the intensity at rest. Myocytes were stimulated at 1 Hz. Simultaneous measurement of shortening was also performed using edge detection. Data were expressed as cell shortening (μm). Myocytes were analyzed from 2-3 independent isolations per group.
Myocytes were analyzed from 2-3 independent isolations per group.

CCCCCCCCCCCCCC(=O)O[C@@H]1[C@@H](C)[C@@]2(O)[C@@H](C=C(CO)C[C@]3(O)C(=O)C(C)=C[C@@H]23)[C@@H]2C(C)(C)[C@]12OC(C)=O [phorbol myristate acetate]
After-contractions ([1]; Rap1A-heterozygous myocytes, 150 nM): decrease

CN(C)CCCn1cc(C2=C(c3c[nH]c4ccccc34)C(=O)NC2=O)c2ccccc21 [bisindolylmaleimide I]
After-contractions ([1]; Rap1A-heterozygous myocytes, 1 μM): increases
After-contractions ([1]; control wild-type (WT) myocytes, 1 μM): increases

Cc1cccc(C)c1OCC(C)N (stereo not shown) [Mexiletine]
After-transients / spontaneous calcium waves [2]: rescued

Reference: patent publication US20120301402A1, “RAP1A AS A MARKER FOR CARDIAC ARRHYTHMIA” (NATIONWIDE CHILDREN'S HOSPITAL, INC., priority 2011, published 2012)
